The structures appear in SMILES notation. Read-outs that look alike come from different tables or passages of the source.

From patent US9334278B2, “Pyrrolo[2,3-B]pyrazines as SYK inhibitors” (Hoffmann-La Roche Inc., priority 2012, dated 2016) come the findings set out here.

For test [1], the system named is B cell CD69 up-regulation in human whole blood. As to the kind of experiment: B Cell CD69 Up-Regulation Assay in Human Whole Blood. The conditions noted are these: anti-human IgM 50 μg/mL for 20 h, CD69hi CD20+ B cells. In kind it is cell-based. Here is the method: B Cell CD69 Up-Regulation Assay in Human Whole Blood
Human Blood was collected from healthy volunteers into Vacutainers (BD Biosciences, San Jose, Calif.) containing sodium heparin. Test compound was suspended in DMSO and nine half-log serial dilutions were made. The concentration of […] in the assay was 0.5%. 100 μL whole blood was pre-incubated with compound for 30 min and then stimulated with goat F(ab′)2 anti-human IgM (50 μg/mL, Southern Biotech) for 20 h. At the end of the 20 hour incubation, samples were incubated with fluorochrome-conjugated antibodies, PE mouse anti-human CD20 and APC Mouse anti-human CD69 (BD Biosciences), for 30 minutes. Samples were then lysed with Lyse solution (BD) and washed with PBS containing 2% fetal bovine serum (FBS). Fluorescent signals were acquired on flow cytometer LSR II (BD) and data were analyzed by Flow Jo. The percentage of activated (CD69hi) B-cell lymphocytes (CD20+) were determined using un-stimulated (negative control) and stimulated (positive control) wells as reference guidelines. The percentage inhibition was calculated and an IC50 curve was constructed using GraphPad Prism software with sigmoidal curve fitting.

Test [2] has as its system Human B cell lymphoma cell line Ramos. Nature of the test: Ramos Calcium Influx FLIPR Assay. In kind it is cell-based. The conditions noted are these: Ramos cells, anti-human IgM 10 μg/mL stimulation, read-out: RAMOS_IC50. Here is the method: Ramos Calcium Influx FLIPR Assay
Human B cell lymphoma cell line Ramos was cultivated in RPMI-1640 with 10% Fetal Bovine Serum (Invitrogen). Cells were seeded into assay plate and loaded with calcium dye by adding 30 μl of dye loading buffer according to manufacturer's instruction (Beckton Dickinson Calcium Kit, Cat#80500). The cells were then treated with serial diluted compounds for 30 min before stimulation. Baseline fluorescence was recorded for about 20 seconds followed by stimulation with mouse anti-human IgM (10 μg/mL, clone M2E6, Antibody Solutions Inc.) for Ramos cells, and record of the maximal fluorescent counts in each well. Maximal counts divided by baseline counts, defined as fold change from baseline for each well, was used for IC50 calculation.

The target in test [3] is recombinant human SYK360-635 (Spleen Tyrosine Kinase) (Homo sapiens (Human), UniProt P43405). As to the kind of experiment: SYK kinase assay (33P filtration, IC50 of SYK inhibition).
Experimental: Determination of IC50 of Spleen Tyrosine Kinase (SYK) inhibition:
SYK kinase assay is a standard kinase assay adapted to a 96 well plate format. This assay is performed in 96-well format for IC50 determination with 8 samples which represented 10 half log dilutions and a 40 μL reaction volume. The assay measures the incorporation of radiolabeled ^33P γATP into an N-terminally biotinylated peptide substrate, derived from naturally occurring phosphoacceptor consensus sequence (Biotin-11aa DY*E). Phosphorylated products were detected upon termination of reactions with EDTA and the addition of Streptavidin coated beads.
BSA: Bovine Serum Albumin Fraction V, fatty acid free (Roche Diagnostics GmbH, Cat. No. 9100221) diluted to a final concentration of 0.1%
Assay Dilution Buffer (ADB): 50 mM HEPES, 0.1 mM EGTA, 0.1 mM Na Vanadate, 0.1 mM (3-glycerophosphate, 10 mM MgCl2, 1 mM DTT, 0.1% BSA, pH 7.5
Bead wash buffer: 10 g/L PBS (Phosphate buffered saline) with 2M NaCl+1% phosphoric acid.
DMSO and the mixture was incubated for 10 min at RT.
The kinase reaction was initiated by the addition of 10 μL 4× substrate cocktail containing the DYE peptide substrate [0 or 5 μM], ATP [20 μM] and ^33PγATP [2 μCi/r×n]. After incubation at 30° C. for 15 min, the reaction was terminated by the transfer of 25 μL of the reaction sample to a 96 well 0.65 μm Millipore MADVNOB membrane/plate containing 200 μL 5 mM EDTA and 20% Streptavidine coated beads in PBS.
The unbound radionucleotides were washed under vacuum with 3×250 μL 2M NaCl; 2×250 μL 2M NaCl+1% phosphoric acid; 1×250 μL H2O. After the last wash membrane/plates were transferred to an adaptor plate, heat dried for 15 min at 60° C., and 50 μL scintillation cocktail was added to each well and 4 h later the amount of radioactivity was counted in a top counter.
Setting [4] is: read-out: ENZYME_FILTRATION_IC50, SYK 0.5 nM, ATP 20 μM, 33P filtration.

With `Cc1ccc(Nc2cnc3[nH]cc(C(=O)NC(C)(C)C)c3n2)nc1` [Compound I-1, N-tert-butyl-2-(5-methylpyridin-2-ylamino)-5H-pyrrolo[2,3-b]pyrazine-7-carboxamide], the results for the IC50 in test [1], in test [2] and in test [3] (setting [4]) were 627 nM, 122 nM and 8.5 nM, respectively.
As to `Cc1ccc(Nc2cnc3[nH]cc(C(=O)NC(C)(C)CO)c3n2)nc1` [Compound I-2, N-(1-hydroxy-2-methylpropan-2-yl)-2-(5-methylpyridin-2-ylamino)-5H-pyrrolo[2,3-b]pyrazine-7-carboxamide], the results for the IC50 in test [1], in test [2] and in test [3] (setting [4]) were 535 nM, 245 nM and 27.4 nM, respectively.
For the compound `Cn1ccc(Nc2cnc3[nH]cc(C(=O)NC(C)(C)C)c3n2)n1` [Compound I-3, N-tert-butyl-2-(1-methyl-1H-pyrazol-3-ylamino)-5H-pyrrolo[2,3-b]pyrazine-7-carboxamide], the IC50 in test [1] is 204 nM; in test [2], 146 nM; in test [3] (setting [4]), 21.1 nM.
With `Cc1ccc(Nc2cnc3[nH]cc(C(=O)NC(C)C)c3n2)nc1` [Compound I-4, N-isopropyl-2-(5-methylpyridin-2-ylamino)-5H-pyrrolo[2,3-b]pyrazine-7-carboxamide], the IC50 came out at 918 nM in test [1], 258 nM in test [2] and 42.8 nM in test [3] (setting [4]).
On to `Cn1cc(Nc2cnc3[nH]cc(C(=O)NC(C)(C)C)c3n2)cn1` [Compound I-5, N-tert-butyl-2-(1-methyl-1H-pyrazol-4-ylamino)-5H-pyrrolo[2,3-b]pyrazine-7-carboxamide], for which the results for the IC50 in test [1], in test [2] and in test [3] (setting [4]) were 75.8 nM, 110 nM and 13.7 nM, respectively.
The like results for `Cc1ccc(Nc2cnc3[nH]cc(C(=O)NC(C)(C)C)c3n2)cn1` [Compound I-6, N-tert-butyl-2-(6-methylpyridin-3-ylamino)-5H-pyrrolo[2,3-b]pyrazine-7-carboxamide] were, in that order, 430 nM, 115 nM and 17.1 nM.
With `Cc1ncc(Nc2cnc3[nH]cc(C(=O)NC(C)(C)C)c3n2)cn1` [Compound I-7, N-tert-butyl-2-(2-methylpyrimidin-5-ylamino)-5H-pyrrolo[2,3-b]pyrazine-7-carboxamide], the IC50 in test [1] came out at 258 nM; in test [2], 283 nM; in test [3] (setting [4]) it was 164 nM.
Consider `Cc1cnc(Nc2cnc3[nH]cc(C(=O)NC(C)(C)C)c3n2)cn1` [Compound I-8, N-tert-butyl-2-(5-methylpyrazin-2-ylamino)-5H-pyrrolo[2,3-b]pyrazine-7-carboxamide], for which the IC50 turned out to be 422 nM in test [1], 334 nM in test [2] and 51.3 nM in test [3] (setting [4]).
As to `Cc1cc(Nc2cnc3[nH]cc(C(=O)NC(C)(C)C)c3n2)[nH]n1` [Compound I-9, N-tert-butyl-2-(3-methyl-1H-pyrazol-5-ylamino)-5H-pyrrolo[2,3-b]pyrazine-7-carboxamide], the values for the IC50 in test [1], in test [2] and in test [3] (setting [4]) were 343 nM, 93.1 nM and 15.5 nM, respectively.
As to `CC(C)(C)NC(=O)c1c[nH]c2ncc(Nc3cccnc3)nc12` [Compound I-10, N-tert-butyl-2-(pyridin-3-ylamino)-5H-pyrrolo[2,3-b]pyrazine-7-carboxamide], the IC50 was determined as 64.5 nM in test [2] and 16.3 nM in test [3] (setting [4]).
`Cc1ccc(Nc2cnc3[nH]cc(C(=O)NC(C)(C)C)c3n2)c(F)c1` [Compound I-11, N-tert-butyl-2-(2-fluoro-4-methylphenylamino)-5H-pyrrolo[2,3-b]pyrazine-7-carboxamide]: the IC50 worked out at 1330 nM in test [2] and 10.9 nM in test [3] (setting [4]).
Turning to `Cc1ccc(Nc2cnc3[nH]cc(C(=O)NC(C)(C)C)c3n2)cc1` [Compound I-12, N-tert-butyl-2-(p-tolylamino)-5H-pyrrolo[2,3-b]pyrazine-7-carboxamide], the IC50 in test [1] is 2160 nM; in test [2] it was 76.7 nM; in test [3] (setting [4]), 3.2 nM.
As to `CC(C)(C)NC(=O)c1c[nH]c2ncc(Nc3cccc(S(C)(=O)=O)c3)nc12` [Compound I-13, N-tert-butyl-2-(3-(methylsulfonyl)phenylamino)-5H-pyrrolo[2,3-b]pyrazine-7-carboxamide], the IC50 is 190 nM in test [1], 69 nM in test [2] and 12.8 nM in test [3] (setting [4]).
The like results for `CCn1cc(Nc2cnc3[nH]cc(C(=O)NC(C)(C)C)c3n2)cn1` [Compound I-14, N-tert-butyl-2-(1-ethyl-1H-pyrazol-4-ylamino)-5H-pyrrolo[2,3-b]pyrazine-7-carboxamide] were, in that order, 184 nM, 101 nM and 35.9 nM.
Regarding `CN(C)C(=O)c1ccccc1Nc1cnc2[nH]cc(C(=O)NC(C)(C)C)c2n1` [Compound I-15, N-tert-butyl-2-(2-(dimethylcarbamoyl)phenylamino)-5H-pyrrolo[2,3-b]pyrazine-7-carboxamide], the IC50 in test [1] is 6940 nM; in test [3] (setting [4]), 934 nM.
Turning to `Cc1c(Nc2cnc3[nH]cc(C(=O)NC(C)(C)C)c3n2)cnn1C` [Compound I-16, N-tert-butyl-2-(1,5-dimethyl-1H-pyrazol-4-ylamino)-5H-pyrrolo[2,3-b]pyrazine-7-carboxamide], the IC50 in test [1] was 375 nM; in test [2], 168 nM; in test [3] (setting [4]), 92.4 nM.
The like results for `Cn1cc(Nc2cnc3[nH]cc(C(=O)NC(C)(C)CO)c3n2)cn1` [Compound I-17, N-(1-hydroxy-2-methylpropan-2-yl)-2-(1-methyl-1H-pyrazol-4-ylamino)-5H-pyrrolo[2,3-b]pyrazine-7-carboxamide] were, in that order, 193 nM, 207 nM and 49.9 nM.
Consider `Cc1ccc(Nc2cnc3[nH]cc(C(=O)NC(C)(C)C)c3n2)c(C)c1` [Compound I-19, N-tert-butyl-2-(2,4-dimethylphenylamino)-5H-pyrrolo[2,3-b]pyrazine-7-carboxamide], for which the results for the IC50 in test [2] and in test [3] (setting [4]) were 518 nM and 117 nM, respectively.
The like results for `CC(C)(CO)NC(=O)c1c[nH]c2ncc(Nc3cccnc3)nc12` [Compound I-26, N-(1-hydroxy-2-methylpropan-2-yl)-2-(pyridin-3-ylamino)-5H-pyrrolo[2,3-b]pyrazine-7-carboxamide] were, in that order, 216 nM and 5.6 nM.
The like results for `CC(C)(C)NC(=O)c1c[nH]c2ncc(Nc3ccnc(S(C)(=O)=O)c3)nc12` [Compound I-28, N-tert-butyl-2-(2-(methylsulfonyl)pyridin-4-ylamino)-5H-pyrrolo[2,3-b]pyrazine-7-carboxamide] were, in that order, 806 nM and 121 nM.
`CC(C)(C)NC(=O)c1c[nH]c2ncc(Nc3cncc(S(C)(=O)=O)c3)nc12` [Compound I-29, N-tert-butyl-2-(5-(methylsulfonyl)pyridin-3-ylamino)-5H-pyrrolo[2,3-b]pyrazine-7-carboxamide]: the IC50 came out at 642 nM in test [2] and 228 nM in test [3] (setting [4]).
On to `Cc1nsc(Nc2cnc3[nH]cc(C(=O)NC(C)(C)C)c3n2)n1` [Compound I-31, N-tert-butyl-2-(3-methyl-1,2,4-thiadiazol-5-ylamino)-5H-pyrrolo[2,3-b]pyrazine-7-carboxamide], for which the IC50 in test [2] was 251 nM; in test [3] (setting [4]), 17.8 nM.
Take `Cc1nc2[nH]cc(C(=O)NC(C)(C)C)c2nc1Nc1cnn(C)c1` [Compound I-34, 3-Methyl-2-(1-methyl-1H-pyrazol-4-ylamino)-5H-pyrrolo[2,3-b]pyrazine-7-carboxylic acid tert-butylamide]: the IC50 in test [1] came out at 5120 nM; in test [2], 2170 nM.
Regarding `Cc1nc2[nH]cc(C(=O)NC(C)(C)C)c2nc1Nc1cccc(S(C)(=O)=O)c1` [Compound I-35, 2-(3-Methanesulfonyl-phenylamino)-3-methyl-5H-pyrrolo[2,3-b]pyrazine-7-carboxylic acid tert-butylamide], the IC50 in test [3] (setting [4]) is 2940 nM.
For `[2H]c1c([2H])c([2H])c(Nc2cnc3[nH]cc(C(=O)NC(C)(C)C)c3n2)c([2H])c1[2H]` [Compound I-37, 2-Phenylamino(D5)-5H-pyrrolo[2,3-b]pyrazine-7-carboxylic acid tert-butylamide], the IC50 in test [2] came to 37.7 nM; in test [3], 4.8 nM.
For `Cc1cc(Nc2nc3c(C(=O)NC(C)(C)C)c[nH]c3nc2Cl)sn1` [Compound I-38, N-tert-butyl-3-chloro-2-(3-methylisothiazol-5-ylamino)-5H-pyrrolo[2,3-b]pyrazine-7-carboxamide], the IC50 in test [2] was 14900 nM; in test [3] (setting [4]), 640 nM.
